In ChEMBL document CHEMBL1201862, “PubChem BioAssay data set” (2004):
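Results reflect a 48-hour exposure of cells in 96-well plates to compound at five concentrations. GI50 marks 50% less growth.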 Calls of active or inactive are those of the source. No stated cut-off is given here; in the data, active = GI50 up to about 1.1 µM and inactive = higher.

Key:
Assay in all cases: inhibition of tumour cell growth, NCI panel, 48 h
K562 = test system: K562
SK-MEL-5 = test system: SK-MEL-5
MDA-MB-231 = test system: MDA-MB-231
SN12C = test system: SN12C
786-0 = test system: 786-0
A549 = test system: A549
RXF 393 = test system: RXF 393
MOLT-4 = test system: MOLT-4
UO-31 = test system: UO-31
SF-295 = test system: SF-295
DU-145 = test system: DU-145
CAKI-1 = test system: CAKI-1
COLO 205 = test system: COLO 205
SF-539 = test system: SF-539
LOX IMVI = test system: LOX IMVI
PC-3 = test system: PC-3
KM12 = test system: KM12
T47D = test system: T47D
HOP-92 = test system: HOP-92
U-251 = test system: U-251
OVCAR-5 = test system: OVCAR-5
MDA-N = test system: MDA-N
OVCAR-4 = test system: OVCAR-4
OVCAR-8 = test system: OVCAR-8
SNB-19 = test system: SNB-19
ACHN = test system: ACHN
NCI/ADR-RES = test system: NCI/ADR-RES
IGROV-1 = test system: IGROV-1
UACC-257 = test system: UACC-257
CCRF-CEM = test system: CCRF-CEM
HCT-15 = test system: HCT-15
NCI-H460 = test system: NCI-H460
OVCAR-3 = test system: OVCAR-3
SNB-75 = test system: SNB-75
HCC 2998 = test system: HCC 2998
UACC-62 = test system: UACC-62
SW-620 = test system: SW-620
SK-MEL-2 = test system: SK-MEL-2
EKVX = test system: EKVX
SF-268 = test system: SF-268
TK-10 = test system: TK-10
M14 = test system: M14
SR = test system: SR
HL-60 = test system: HL-60
NCI-H522 = test system: NCI-H522
BT-549 = test system: BT-549
RPMI-8226 = test system: RPMI-8226
SK-MEL-28 = test system: SK-MEL-28
Malme-3M = test system: Malme-3M
Hs-578T = test system: Hs-578T
MDA-MB-435 = test system: MDA-MB-435
MCF7 = test system: MCF7
NCI-H226 = test system: NCI-H226
HCT-116 = test system: HCT-116
HOP-62 = test system: HOP-62
HT-29 = test system: HT-29
NCI-H23 = test system: NCI-H23
SK-OV-3 = test system: SK-OV-3

Cc1cc2c(cc1C)C(=O)C1(C2)Cc2c(ccc(C)c2C)C1=O (configuration not stated)
GI50 (K562): > 100 µM (inactive)
GI50 (SK-MEL-5): > 100 µM (inactive)
GI50 (MDA-MB-231): > 100 µM (inactive)
GI50 (SN12C): > 100 µM (inactive)
GI50 (786-0): 89.1 µM (inactive)
GI50 (A549): 73.6 µM (inactive)
GI50 (RXF 393): 53.8 µM (inactive)
GI50 (MOLT-4): > 100 µM (inactive)
GI50 (UO-31): > 100 µM (inactive)
GI50 (SF-295): > 100 µM (inactive)
GI50 (DU-145): > 100 µM (inactive)
GI50 (CAKI-1): > 100 µM (inactive)
GI50 (COLO 205): > 100 µM (inactive)
GI50 (SF-539): 36.6 µM (inactive)
GI50 (LOX IMVI): > 100 µM (inactive)
GI50 (PC-3): > 100 µM (inactive)
GI50 (KM12): > 100 µM (inactive)
GI50 (T47D): > 100 µM (inactive)
GI50 (HOP-92): 79.4 µM (inactive)
GI50 (U-251): > 100 µM (inactive)
GI50 (OVCAR-5): > 100 µM (inactive)
GI50 (MDA-N): > 100 µM (inactive)
GI50 (OVCAR-4): 75.5 µM (inactive)
GI50 (OVCAR-8): 72.8 µM (inactive)
GI50 (SNB-19): > 100 µM (inactive)
GI50 (ACHN): > 100 µM (inactive)
GI50 (NCI/ADR-RES): > 100 µM (inactive)
GI50 (IGROV-1): > 100 µM (inactive)
GI50 (UACC-257): > 100 µM (inactive)
GI50 (CCRF-CEM): > 100 µM (inactive)
GI50 (HCT-15): > 100 µM
GI50 (NCI-H460): > 100 µM (inactive)
GI50 (OVCAR-3): > 100 µM (inactive)
GI50 (SNB-75): 64.6 µM (inactive)
GI50 (HCC 2998): > 100 µM (inactive)
GI50 (UACC-62): > 100 µM (inactive)
GI50 (SW-620): > 100 µM (inactive)
GI50 (SK-MEL-2): > 100 µM (inactive)
GI50 (EKVX): > 100 µM (inactive)
GI50 (SF-268): 90.8 µM (inactive)
GI50 (TK-10): > 100 µM (inactive)
GI50 (M14): > 100 µM (inactive)
GI50 (SR): > 100 µM (inactive)
GI50 (HL-60): > 100 µM (inactive)
GI50 (NCI-H522): > 100 µM (inactive)
GI50 (BT-549): > 100 µM (inactive)
GI50 (RPMI-8226): > 100 µM (inactive)
GI50 (SK-MEL-28): > 100 µM (inactive)
GI50 (Malme-3M): 98.6 µM (inactive)
GI50 (Hs-578T): 42.5 µM (inactive)
GI50 (MDA-MB-435): > 100 µM (inactive)
GI50 (MCF7): > 100 µM (inactive)
GI50 (NCI-H226): > 100 µM (inactive)
GI50 (HCT-116): > 100 µM (inactive)

COc1cc(N(CCC#N)CCC#N)ccc1C(=N/NC(=O)c1cc(Br)ccc1O)/N=N/c1ccc(C)cc1
GI50 (K562): 37.2 µM (inactive)
GI50 (SK-MEL-5): 17.1 µM (inactive)
GI50 (MDA-MB-231): 15.5 µM (inactive)
GI50 (SN12C): 17.3 µM (inactive)
GI50 (786-0): 32.1 µM (inactive)
GI50 (A549): 28.8 µM (inactive)
GI50 (RXF 393): 19.3 µM (inactive)
GI50 (MOLT-4): 14 µM (inactive)
GI50 (UO-31): 18.5 µM (inactive)
GI50 (SF-295): 31 µM (inactive)
GI50 (HOP-62): 20.2 µM (inactive)
GI50 (DU-145): 27.4 µM (inactive)
GI50 (HT-29): 32.6 µM (inactive)
GI50 (CAKI-1): 27.9 µM (inactive)
GI50 (COLO 205): 15.7 µM (inactive)
GI50 (SF-539): 29 µM (inactive)
GI50 (LOX IMVI): 17.9 µM (inactive)
GI50 (PC-3): 20.6 µM (inactive)
GI50 (KM12): 17 µM (inactive)
GI50 (T47D): 4.36 µM (inactive)
GI50 (HOP-92): 20.8 µM (inactive)
GI50 (U-251): 37.4 µM (inactive)
GI50 (OVCAR-5): 61.4 µM (inactive)
GI50 (MDA-N): 30.9 µM (inactive)
GI50 (OVCAR-4): 18.4 µM (inactive)
GI50 (OVCAR-8): 22.8 µM (inactive)
GI50 (SNB-19): 25.6 µM (inactive)
GI50 (ACHN): 27 µM (inactive)
GI50 (NCI/ADR-RES): 27.1 µM (inactive)
GI50 (IGROV-1): 4.32 µM (inactive)
GI50 (UACC-257): 25.1 µM (inactive)
GI50 (CCRF-CEM): 4.5 µM (inactive)
GI50 (HCT-15): 12.2 µM
GI50 (NCI-H23): 17 µM (inactive)
GI50 (NCI-H460): 15.5 µM (inactive)
GI50 (OVCAR-3): 22.9 µM (inactive)
GI50 (SNB-75): 22.6 µM (inactive)
GI50 (HCC 2998): 19.7 µM (inactive)
GI50 (UACC-62): 18.5 µM (inactive)
GI50 (SW-620): 29.7 µM (inactive)
GI50 (SK-MEL-2): 23.7 µM (inactive)
GI50 (EKVX): 21.7 µM (inactive)
GI50 (SF-268): 15.4 µM (inactive)
GI50 (TK-10): 23.9 µM (inactive)
GI50 (M14): 28.3 µM (inactive)
GI50 (SR): 24.3 µM (inactive)
GI50 (HL-60): 15.4 µM (inactive)
GI50 (SK-OV-3): 24.2 µM (inactive)
GI50 (NCI-H522): 18 µM (inactive)
GI50 (BT-549): 18 µM (inactive)
GI50 (RPMI-8226): 22.2 µM (inactive)
GI50 (SK-MEL-28): 25.1 µM (inactive)
GI50 (Malme-3M): 29.3 µM (inactive)
GI50 (Hs-578T): 40.2 µM (inactive)
GI50 (MDA-MB-435): 44.9 µM (inactive)
GI50 (MCF7): 17.4 µM (inactive)
GI50 (NCI-H226): 32.4 µM (inactive)
GI50 (HCT-116): 16.1 µM (inactive)
